Reference: ChEMBL document CHEMBL4152312, “Identification of fused pyrimidines as interleukin 17 secretion inhibitors” (Eur J Med Chem, 2018)

Key:
PBMC [1] = assay: Inhibition of IL-17 secretion in anti-human CD3 antibody/anti-human CD28 antibody/IL23-stimulated human PBMC after 48 hrs by ELISA; type: functional, cell-based
PBMC [2] = assay: Cytotoxicity against human PBMC assessed as induction of cell death by cell Titer-Glo assay; type: cell-based
PBMC [3] = assay: Inhibition of IL-5 secretion in anti-human CD3 antibody/anti-human CD28 antibody/IL23-stimulated human PBMC after 48 hrs by ELISA; type: functional, cell-based

Compound	IC50 (PBMC [1]) [µM]	IC50 (PBMC [2]) [µM]	IC50 (PBMC [3]) [µM]
C[C@@H](Nc1ncnc2[nH]cc(-c3ccc(F)c(CO)c3)c12)c1ccccc1	3.1	> 10	–
COc1ccc(-c2cc3c(N[C@H](CO)c4ccccc4)ncnc3s2)cc1	> 10	–	–
C[C@@H](Nc1ncnc2sc(-c3ccccc3)cc12)c1ccccc1	> 10	–	–
CN(C)CCn1cc(-c2ccc(F)c(CO)c2)c2c(N[C@H](CO)c3ccccc3)ncnc21	> 10	–	–
NC(=O)CC(Nc1ncnc2sc(-c3ccc(CO)cc3)cc12)c1ccccc1 (centres undefined)	3.3	> 10	–
CS(=O)(=O)CCNCc1ccc(-c2ccc3ncnc(Nc4ccc(OCc5cccc(F)c5)c(Cl)c4)c3c2)o1 [LAPATINIB]	–	28	–
COc1ccc(-c2cc3c(N[C@H](CCO)c4ccccc4)ncnc3s2)cc1	> 10	–	–
CN(C)CCn1cc(-c2cccc(O)c2)c2c(N[C@H](CO)c3ccccc3)ncnc21	> 10	–	–
Fc1ccc(Nc2ncnc3sc(-c4ccc(Br)cc4)cc23)cc1Cl	> 10	–	–
Oc1ccc(-c2cc3c(OC(c4ccccc4)C(F)(F)F)ncnc3s2)cc1 (centres undefined)	> 10	–	–
COc1cc(CO)ccc1-c1cc2c(N[C@H](CO)c3ccccc3)ncnc2[nH]1	3.1 to 3.2	> 30	2.3 to 3.5
OCc1ccc(-c2cc3c(Nc4cccc(OCc5ccccc5)c4)ncnc3[nH]2)cc1	2.2	> 10	–
OCc1ccc(-c2cc3c(Nc4ccc(OCc5cccc(F)c5)c(Cl)c4)ncnc3[nH]2)cc1	> 10	–	–
CC(Nc1ncnc2[nH]c(-c3ccc(CO)cc3)cc12)C12CC3CC(CC(C3)C1)C2 (centres undefined)	5	> 10	–
CN(C)CCn1cc(-c2ccc(CO)cc2)c2c(N[C@H](CO)c3ccccc3)ncnc21	> 10	–	–
COc1ccc(-c2cc3c(NC(CC(N)=O)c4ccccc4)ncnc3s2)cc1 (centres undefined)	4	> 30	7.6 to 8
Cc1cc(C)c(-c2cc3c(N[C@H](C)c4ccccc4)ncnc3s2)c(C)c1	> 10	–	–
CN(C)CCn1cc(-c2ccc(O)cc2)c2c(N[C@H](CO)c3ccccc3)ncnc21	> 10	–	–
COc1cccc(OC)c1-c1cc2c(N[C@H](C)c3ccccc3)ncnc2[nH]1	4.2	> 10	2.5
Oc1cccc(-c2cc3c(OC(c4ccccc4)C(F)(F)F)ncnc3s2)c1 (centres undefined)	> 10	–	–

Compound	IC50 (PBMC [1]) [µM]	IC50 (PBMC [2]) [µM]	IC50 (PBMC [3]) [µM]
COc1ccc(-c2cc3c(N[C@H](C)C4CCCCC4)ncnc3s2)cc1	> 10	–	–
OCc1ccc(-c2cc3c(Nc4cccc(OCc5ccccc5)c4)ncnc3s2)cc1	> 10	–	–
COc1cccc(OC)c1-c1cc2c(N[C@H](CO)c3ccccc3)ncnc2s1	7	> 30	–
COc1cc(CO)ccc1-c1cc2c(N[C@H](CO)c3ccc(F)cc3)ncnc2[nH]1	3.1	> 10	–
Cn1cc(-c2cccc(O)c2)c2c(N[C@H](CO)c3ccccc3)ncnc21	2.8	> 10	–
C=Cc1ccc(-c2cc3c(N[C@H](C)c4ccccc4)ncnc3s2)cc1	> 10	–	–
CC(CO)Nc1ncnc2c1c(-c1cccc(O)c1)cn2CCN(C)C (single isomer, unassigned)	> 10	–	–
COc1ccc(-c2cc3c(N[C@@H](C)CO)ncnc3s2)cc1	> 10	–	–
COc1ccccc1-c1cc2c(N[C@H](C)c3ccccn3)ncnc2s1	> 10	–	–
C[C@@H](Nc1ncnc2[nH]cc(-c3ccc(F)c(CNCCN(C)C)c3)c12)c1ccccc1	5	> 10	–
COc1cc(CO)ccc1-c1cc2c(N[C@H](CO)c3ccccc3)ncnc2s1	4.6	> 30	14
Oc1cccc(-c2c[nH]c3ncnc(Nc4ccc(OCc5cccc(F)c5)c(Cl)c4)c23)c1	> 10	–	–
CC(C)c1cc(C(C)C)c(-c2cc3c(N[C@H](C)c4ccccc4)ncnc3s2)c(C(C)C)c1	> 10	–	–
COc1cccc(-c2cc3c(N[C@H](C)c4ccccc4)ncnc3s2)c1OC	> 10	–	–
COc1cc(F)ccc1-c1cc2c(N[C@H](CO)c3ccccc3)ncnc2[nH]1	4.1 to 4.3	> 10	1.1
Fc1ccc(-c2cc3c(Nc4cccc(OCc5ccccc5)c4)ncnc3s2)cc1	> 10	–	–
COc1cc(CO)ccc1-c1cc2c(Nc3ccc(OCc4cccc(F)c4)c(Cl)c3)ncnc2s1	9	28	> 30
Fc1ccc(-c2cc3c(Nc4cccc(OCc5ccccc5)c4)ncnc3[nH]2)cc1	> 10	–	–
Oc1ccccc1-c1cc2c(OC(c3ccccc3)C(F)(F)F)ncnc2s1 (centres undefined)	> 10	–	–
